Marks after values point to notes of the source that are not given here.
Legend:
[1] = test system: cutaneous wound in C57BL/6J mice; assay: Mouse cutaneous injury model of wound healing; type: in vivo; conditions: 10 μg/mouse/day topically for 10 days
Procedure: Under volatile anesthesia (5% isoflurane to effect), the shoulder and back region of each animal was shaved. A sharp punch (ID 6 mm) over their lumbar spine was applied to remove the skin, including panniculus carnosus and adherent tissues. Test substances were administered topically (TOP), immediately following cutaneous injury, once daily for 10 consecutive days. […] Wounds were traced onto clear plastic sheets and were measured by use of an ImageJ program (rsbweb.nih.gov/ij/), online from the National Institutes of Health (NIH). ImageJ is a public domain, Java-based image processing program developed at the NIH. Time to wound closure was estimated by comparing the area of the wound undergoing treatment to the areas of the wound undergoing control treatments. The percent closure of the wound (%) was calculated, and wound half-closure time (the time at which 50% of the cutaneous wound is closed, CT50) was analyzed by linear regression using Graph-Prism (Graph Software USA). At the end of experiment (10 days after the induction of the wound), animals were euthanized by CO2 gas inhalation. Blood was collected by heart puncture. Wound tissue and muscle were collected for immunohistochemical analyses and wound healing factor assays. HB increased the percent of wound closure in vivo in a mouse model of wound closure (FIG. 13). […] Twenty seven six-week-old male C57BL/6J mice, obtained from the Jackson Laboratory (Bar Harbor, Me.), were housed in individual chambers in a room maintained at a constant temperature with 12 h light-dark cycle. Mice had free access to food and water. Mice were allowed to adapt to new conditions for seven days and handling the mice was performed daily during this time to reduce the stress of physical manipulation. Mice were randomized into groups (n=9) according to body weight one day prior to dosing. Under volatile anesthesia (5% isoflurane to effect), the shoulder and back region of each animal was shaved. A sharp punch (ID 6 mm) over lumbar spine was applied to remove the skin including panniculus carnosus and adherent tissues. […] Pharmacol. 77: 1117-1124, 2009) as a positive control) was administered topically, immediately following cutaneous injury, and then daily for 10 days. To investigate the kinetics of wound healing, wound size was photographed and measured every two days with ImageJ software (rsbweb.nih.gov/ij/). […] The percent closure of the wound (%) was calculated, and time at which 50% of the cutaneous wound was closed (CT50) was analyzed by linear regression. […] Wound sizes were photographed and measured every 2 days for 10 days. Wound closure (%) relative to day 1 was determined every 2 days, and CT50 was calculated by linear regression. […]

[2] = test system: TNF-α, TGF-β and ICAM-1 mRNA in wounds; assay: Cytokine and chemokine mRNA in wound tissue, qPCR; type: in vivo; conditions: day 10 post-wounding, 10 μg/mouse topically
Procedure: Cutaneous would healing is characterized by an initial inflammatory response. To evaluate the effect of brassinosteroids on inflammation in wound healing, mRNA levels of proinflammatory cytokines TNF-α and TGF-β and an adhesion chemokine ICAM-1 were measured in the wound tissue of control and treated mice on day 10 post-wounding and treatment with HB, positive control (CGS-21680), or negative control (vehicle).
Total RNA was extracted from fibroblasts using Trizol (Invitrogen, Carlsbad, Calif.). RNA was quantified spectrophotometrically by absorbance measurements at 260 and 280 nm using the NanoDrop reader (NanoDrop Technologies, Wilmington, Del.). Quality of RNA was assessed by gel electrophoresis. RNA was then treated with DnaseI (Invitrogen, Carlsbad, Calif.) to remove traces of DNA contamination and the cDNAs were synthesized with 2.5 μg of RNA using Stratascript reverse transcriptase (Stratagene, Santa Clara, Calif.) according to the manufacturers' protocols. Quantitative PCR was performed in duplicate essentially as described previously (Komarnytsky et al., Int. J. Obes. 35: 236-43, 2011) using the following gene-specific primers (IDT, Coralville, Iowa) selected using the Primer Express 2.0 software (Applied Biosystems, Foster City, Calif.): β-actin, forward primer 5′-GGGAAATCGTGCGTGACATT-3′ (SEQ ID NO: 5), and reverse primer 5′-GCG GCA GTG GCC ATC TC-3′ (SEQ ID NO: 6). Target gene expression of the housekeeping gene β-actin was assigned a value of 1. Samples were subjected to a melting curve analysis to confirm the amplification specificity. The relative change in the […] with respect to the endogenous control gene was determined using 2ΔΔCT method (Winer et al., Anal. Biochem. 270: 41-9, 1999).

[3] = test system: elastin mRNA in human neonatal dermal fibroblasts (HNDF); assay: Elastin gene expression in human dermal fibroblasts, qPCR; type: cell-based; conditions: 16 h
Procedure: Human neonatal dermal fibroblasts (HNDF) were maintained in DMEM+10% FBS and were kept in a humidified 37° C. incubator with 5% CO2. Cells were plated at a density of 1×10^4 cells per well in a 24-well plate and incubated for 24 h, or until 100% confluency was reached. Subsequently, the media was removed and cells were washed with 500 μL PBS twice to remove detached cells or cell debris. HNDF were then treated for 16 h as follows: DMEM only, retinoic Acid 5 μM, retinoic acid 10 μM, Homocastasterone 5 μM and Homocastasterone 10 μM.
RNA was extracted from HNDF using Trizol reagent (Invitrogen) following manufacturer instructions. RNA was quantified spectrophotometrically by absorbance measurements at 260 nm and 280 nm using the NanoDrop system (NanoDrop Technologies, Wilmington, Del.). Quality of RNA was assessed by separation in gel-electrophoresis. To remove any traces of DNA contamination, RNA was then treated with Dnase I (Invitrogen) following the manufacturer guidelines. Complementary DNAs (cDNAs) were synthesized using 3.0 μg of RNA for each sample using Applied Biosystems High Capacity cDNA Reverse Transcription Kit following the manufacturer's protocol.
Quantitative RT-PCR (qPCR) amplifications were carried out in triplicate on an ABI 7300 Real-Time Detection System in a total volume of 25 μl containing 12.5 μl Brilliant SYBR® Green PCR master mix (Applied Biosystems), 5 μl of the 1:25 diluted cDNA, 0.5 μl of 6 μM gene-specific primers (IDT, Coralville, Iowa) and […] PCR-grade water. Primers were synthesized by Integrated DNA Technologies, Inc. (Coralville, Iowa, USA) as follows: β-actin, forward primer 5′-ACGTTGCTATCCAGGCTGTGCTAT-3′ (SEQ ID NO: 1), reverse primer 5′-CTCGGTGAGGATCTTCATGAGGTAGT-3′ (SEQ ID NO: 2); elastin, forward primer 5′-AAGCAGCAGCAAAGTTCGGT-3′ (SEQ ID NO: 3), and reverse primer 5′-ACTAAGCCTGCAGCAGCTCCATA-3′ (SEQ ID NO: 4). qPCR amplifications were performed on the 7300 Real Time PCR System (A&B Applied Biosystems) using 1 cycle at 50° C. for 2 min, 1 cycle at 95° C. for 10 min, followed by 40 cycles of 15 s at 95° C. and 1 min at 60° C. The dissociation curve was completed with one cycle of 15 s at 95° C., 1 min at 60° C., and 15 s of 95° C. No RT (NRT) and no template control (NTC) were included in each experiment as quality control steps. Target mRNA expression was analyzed using the ΔΔCt method and normalized with respect to the expression of the β-actin housekeeping gene. Cells treated with DMEM only (negative control) served as the calibrator sample in this study, and a value of 1.0 was assigned to the target gene expression of the calibrator sample. All samples were run in triplicate. A p value of 0.001 was considered to be significant.

| SMILES | CT50, time at which 50% of the cutaneous wound is closed [1] [days] | ICAM-1 mRNA in wound tissue [2] | TGF-β mRNA in wound tissue [2] | TNF-α mRNA in wound tissue [2] | Increase in elastin mRNA levels (-fold over control) ([3]; 5 μM) | Increase in elastin mRNA levels (-fold over control) ([3]; 10 μM) |
| --- | --- | --- | --- | --- | --- | --- |
| CCNC(=O)[C@H]1O[C@@H](n2cnc3c(N)nc(NCCc4ccc(CCC(=O)O)cc4)nc32)[C@H](O)[C@@H]1O [CGS-21680, reference compound] | 6.2 ± 0.4 | no effect | no effect | remarkable suppression | – | – |
| CC1=C(/C=C/C(C)=C/C=C/C(C)=C/C(=O)O)C(C)(C)CCC1 [Retinoic Acid, reference compound] | – | – | – | – | 2.9** fold | 2.7** fold |

Source: US20140128357A1, “METHODS OF PRODUCING AND USING BRASSINOSTEROIDS TO PROMOTE GROWTH, REPAIR AND MAINTENANCE OF SKELETAL MUSCLE AND SKIN” (Rutgers University, priority 2010, published 2014)
